According to article PMC6868653 (Pharmacology Research & Perspectives, 2019):
Numbering of substitutions follows the chain as printed. Several values for one entry are separate records, joined by “and”; a condition that tells them apart may be missing. Equal entries are not always repeated. Where two headings read alike, the source gives them in different places.

Assays:
Mouse GPR132 = molecular target: T1, Mouse GPR132 (Mus musculus, UniProt Q9Z282); experiment: β‐arrestin association; type: cell-based; details: for pEC50, Mouse GPR132, β‐arrestin: mean ± SD; for Emax, Mouse GPR132, β‐arrestin: normalized to the effect of SB‐583831
T1 sequence (Q9Z282 1-382): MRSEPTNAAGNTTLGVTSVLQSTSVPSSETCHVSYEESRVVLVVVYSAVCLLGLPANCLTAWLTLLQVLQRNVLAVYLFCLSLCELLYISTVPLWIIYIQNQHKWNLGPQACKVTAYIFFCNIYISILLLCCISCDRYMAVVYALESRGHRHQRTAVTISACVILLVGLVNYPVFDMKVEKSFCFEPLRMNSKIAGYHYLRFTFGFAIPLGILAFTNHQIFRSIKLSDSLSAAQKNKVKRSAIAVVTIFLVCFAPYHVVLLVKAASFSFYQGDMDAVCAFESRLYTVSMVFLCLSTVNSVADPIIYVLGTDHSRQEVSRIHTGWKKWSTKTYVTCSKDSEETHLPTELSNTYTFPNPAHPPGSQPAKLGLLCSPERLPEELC

hGPR132a [1] = molecular target: T2, hGPR132a (Homo sapiens, UniProt Q9UNW8); experiment: Ca2+ microfluorimetry in RBL‐hGPR132a cells; type: cell-based; details: 10 µmol/L ligand, mean ± SE
T2 sequence (Q9UNW8 1-380): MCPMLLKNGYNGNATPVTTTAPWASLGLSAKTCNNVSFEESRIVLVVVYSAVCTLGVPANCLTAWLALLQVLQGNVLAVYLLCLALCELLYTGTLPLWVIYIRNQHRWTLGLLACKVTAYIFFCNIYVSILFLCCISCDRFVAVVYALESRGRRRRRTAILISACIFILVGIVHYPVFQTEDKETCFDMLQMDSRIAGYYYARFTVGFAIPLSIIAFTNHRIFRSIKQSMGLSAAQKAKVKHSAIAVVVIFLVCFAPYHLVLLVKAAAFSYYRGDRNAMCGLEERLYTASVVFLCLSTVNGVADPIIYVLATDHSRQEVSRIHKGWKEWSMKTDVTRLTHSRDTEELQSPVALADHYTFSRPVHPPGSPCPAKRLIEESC

hGPR132a [2] = molecular target: T2, hGPR132a; type: cell-based; details: for pEC50, Human GPR132a, Yeast: mean ± SD, IA = inactive, bound = top concentration tested; for Emax, Human GPR132a, Yeast: normalized to the effect of NPGly
parental RBL cells = experiment: Ca2+ microfluorimetry in parental RBL cells; type: cell-based, rat; details: 10 µmol/L ligand, mean ± SE
Rat GPR132 = Rat GPR132 (Rattus norvegicus, UniProt A0A8I6A964); experiment: Yeast pheromone-response pathway reporter assay, yeast expressing rGPR132; type: cell-based; details: for pEC50, Rat GPR132, Yeast: mean ± SD; for Emax, Rat GPR132, Yeast: normalized to the effect of 9‐HODE
Sequence of Rat GPR132 (A0A8I6A964 1-384): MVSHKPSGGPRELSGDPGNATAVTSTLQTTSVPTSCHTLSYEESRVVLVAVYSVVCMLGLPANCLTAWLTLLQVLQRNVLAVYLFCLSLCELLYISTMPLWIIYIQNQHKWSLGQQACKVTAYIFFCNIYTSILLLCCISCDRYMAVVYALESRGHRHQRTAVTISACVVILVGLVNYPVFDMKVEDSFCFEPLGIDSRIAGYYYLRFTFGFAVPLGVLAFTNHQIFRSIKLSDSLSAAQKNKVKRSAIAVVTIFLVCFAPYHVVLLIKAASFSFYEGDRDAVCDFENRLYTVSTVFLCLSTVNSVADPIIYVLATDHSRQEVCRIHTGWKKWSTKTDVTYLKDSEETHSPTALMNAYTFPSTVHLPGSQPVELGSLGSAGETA

hGPR132a Y200A = molecular target: T3, hGPR132a Y200A (Homo sapiens, UniProt Q9UNW8, Y200A); experiment: Yeast assay, hGPR132a mutant Y200A; details: mean ± SD
T3 sequence (Q9UNW8 1-380 Y200A): T2 sequence (Q9UNW8 1-380) with Y200A

hGPR132a [3] = molecular target: T2, hGPR132a; experiment: β‐arrestin association; type: cell-based; details: for pEC50, Human GPR132a, β‐arrestin: mean ± SD; for Emax, Human GPR132a, β‐arrestin: normalized to the effect of SB‐583831
human CB2 = human CB2 (Homo sapiens, UniProt P34972); experiment: Yeast assay, specificity receptor human CB2; type: cell-based
Sequence of human CB2 (P34972 whole entry): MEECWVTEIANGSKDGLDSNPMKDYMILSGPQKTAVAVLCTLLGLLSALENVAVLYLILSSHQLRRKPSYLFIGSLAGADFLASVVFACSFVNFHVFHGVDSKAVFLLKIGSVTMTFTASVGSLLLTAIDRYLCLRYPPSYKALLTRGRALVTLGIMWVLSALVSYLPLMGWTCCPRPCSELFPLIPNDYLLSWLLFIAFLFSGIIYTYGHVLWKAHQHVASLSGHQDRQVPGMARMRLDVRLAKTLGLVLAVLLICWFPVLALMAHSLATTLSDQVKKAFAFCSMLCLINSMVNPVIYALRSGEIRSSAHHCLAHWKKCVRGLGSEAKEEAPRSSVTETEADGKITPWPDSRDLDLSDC

CB2 = details: tested up to 10 µmol/L; cited from earlier work
hGPR132a R203A = molecular target: T4, hGPR132a R203A (Homo sapiens, UniProt Q9UNW8, R203A); experiment: Yeast assay, hGPR132a mutant R203A; details: mean ± SD
T4 sequence (Q9UNW8 1-380 R203A): T2 sequence (Q9UNW8 1-380) with R203A

hGPR132a [4] = molecular target: T2, hGPR132a; experiment: Yeast assay hGPR132a, antagonist mode / Schild analysis; type: cell-based; details: agonist SB‐583831

Row | SMILES | pEC50, Mouse GPR132, β‐arrestin (Mouse GPR132) | Emax, Mouse GPR132, β‐arrestin (Mouse GPR132) [%] | pEC50, Human GPR132a, Yeast (hGPR132a [2]) | pEC50, Rat GPR132, Yeast (Rat GPR132) | Emax, Rat GPR132, Yeast (Rat GPR132) [%] | Emax, Human GPR132a, Yeast (hGPR132a [2]) | pEC50, Human GPR132a, β‐arrestin (hGPR132a [3]) | Emax, Human GPR132a, β‐arrestin (hGPR132a [3]) | also measured
1 | CCCCC/C=C\C=C\C(O)CCCCCCCC(=O)O (stereo not shown) [9‐HODE, 9‐hydroxyoctadecadienoic acid] | 5.6 ± 0.23 (5) | 97 ± 6 | 5.9 ± 0.14 (4) | 6.2 ± 0.12 (5) | 100 |  |  |  | Ca2+ transient, peak response (hGPR132a [1]): 0.122 ± 0.016 ratio units; Ca2+ transient, peak response (parental RBL cells): 0.023 ± 0.003 ratio units
2 | CCCCCCC(C)(C)c1ccc([C@@H]2C[C@H](O)CC[C@H]2CCCO)c(O)c1 [CP‐55,940] |  |  |  |  |  | full agonists |  |  | pEC50, Y200A (hGPR132a Y200A): abolished; EC50 (hGPR132a [2]): 3.16 µM; Emax (hGPR132a [2]; read-out: Emax, Human GPR132a, Yeast): 102 ± 3%; EC50 (Rat GPR132): > 3.16 µM
3 | CCCCC/C=C\C/C=C\CCCCCCCC(N)=O [Linoleamide, linoleamide] | <5 (1) |  | 5.8 ± 0.01 (3) | 5.9 ± 0.21 (2) | 37 ± 5 | 79 ± 11% | 5.5 (1) | 22% | 
4 | CCCCC/C=C\C/C=C\CCCCCCCC(=O)O [Linoleic acid] |  |  |  |  |  |  |  |  | EC50 (hGPR132a [2]): > 100 µM; agonist activity at hGPR132a in yeast (hGPR132a [2]; tested up to 100 µmol/L): no detectable agonist activity; EC50 (hGPR132a [3]): > 10 µM
5 | CCCCC/C=C\C/C=C\C/C=C\C/C=C\CCCC(=O)NCC(=O)O [NAGly, N‐arachidonoylglycine] |  |  | <4.5 (3) | 5.3 ± 0.09 (4) | 87 ± 12 | 38% |  |  | Emax, CB2, yeast (human CB2): 17±2%; pEC50, CB2, yeast (human CB2): 5.6 ± 0.3; binding to CB2 (CB2): does not bind
6 | CCCCC/C=C\C/C=C\C/C=C\C/C=C\CCCC(=O)N[C@@H](Cc1ccc(O)cc1)C(=O)O [NATyr, N‐arachidonyltyrosine] |  |  |  | <4 (3) |  |  |  |  | 
7 | CC/C=C\C/C=C\C/C=C\C/C=C\C/C=C\C/C=C\CCC(=O)NCC(=O)O [NDGly, N‐docosahexanoylglycine] |  |  | <4.4 (4) |  |  | 33% | <5 (2) |  | 
8 | CCCCC/C=C\C/C=C\CCCCCCCC(=O)NCC(=O)O [NLGly, N‐linoleoylglycine] | 5.3 (1) | 40 | 5.8 ± 0.08 (3) | 6.5 ± 0.36 (4) | 68 ± 7 | 84 ± 6% | 5.5 ± 0.23 (2) | 39±4% and 38 ± 4% | Ca2+ transient, peak response (hGPR132a [1]): 0.138 ± 0.03 ratio units; Ca2+ transient, peak response (parental RBL cells): 0.040 ± 0.008 ratio units; pEC50, R203A (hGPR132a R203A): abolished responses
9 | CCCCCCCC/C=C\CCCCCCCC(=O)NCC(=O)O [NOGly, N‐oleoylglycine] | 5.3 ± 0.05 (2) | 44 ± 10 | 5.1 ± 0.24 (3) |  |  | 95 ± 6% | 5.6 ± 0.18 (2) | 29 ± 15% | pEC50, R203A (hGPR132a R203A): eliminated the activity
10 | CCCCCCCC/C=C\CCCCCCCC(=O)N[C@@H](CO)C(=O)O [NOSer, N‐oleoylserine] |  |  | 5.8 ± 0.07 (4) |  |  | 21 ± 5% |  |  | 
11 | CCCCCCCCCCCCCCCC(=O)NCC(=O)O [NPGly, N‐palmitoylglycine] | <5 (2) | 11 | 6.2 ± 0.16 (7) | 7.0 ± 0.12 (4) | 53 ± 14 |  | <5 (3) | 14% | pEC50, R203A (hGPR132a R203A): abolished responses
12 | CCCCCCCCCCCCCCCCCC(=O)NCC(=O)O [NSGly, N‐stereoylglycine] | <5 (1) |  | 5.1 ± 0.08 (3) |  |  | 80 ± 4% | 5.4 (1) | 23% | 
13 | CCCc1nc2c(C)cc(-c3nc4ccccc4n3C)cc2n1Cc1ccc(-c2ccccc2C(=O)O)cc1 [telmisartan] |  |  |  |  |  |  |  |  | Schild Hill slope nH (hGPR132a [4]): 1.9
